Experimental data published in PubChem BioAssay AID2060496 (Molecular Pharmacology Branch, DTP, NCI, 2025).
Values joined by “and” are separate entries in the source; they are usually repeats but may differ in a detail not shown here. Equal entries are not always repeated.

System: 276233-004-R-J1-PDC complex spheroid viability
Assay: Anticancer human tumor 276233-004-R-J1-PDC patient-derived colon adenocarcinoma cell line growth inhibition [GQUAD]
Conditions: for viability, T/C: stronger effect = lower value
Text: DNA G-quadruplex Stabilizer Agents in Combinations in Complex Spheroids
A high-throughput screen of multi-cell type tumor spheroids was designed to identify active combinations of DNA G-quadruplex stabilizer agents and targeted small molecules. Complex spheroids include a stromal component modeled by human endothelial cells (HUVEC) and fibroblasts modeled by human mesenchymal stem cells (MSCs). The concentration ranges selected for each drug and investigational agent were based upon clinically achievable concentrations if the clinical Cmax of the agent was known.
Compounds. The drugs and investigational agents: pidnarulex (CX-5461; NSC782164), APTO-253 (NSC789042), BRACO-19 (NSC847499), peposertib (NSC802822), ceralasertib (NSC780249), elimusertib (NSC800525), camonsertib (NSC841442), AZD-1390 (NSC803789), olaparib (NSC753686), talazoparib (NSC767125), ART-558 (NSC835418), sotorasib (NSC818433), MRTX-1133 (NSC836407), SN-38 (NSC673596), topotecan (NSC609699), etoposide (NSC141540), doxorubicin (NSC123127), gemcitabine (NSC613327), 5-fluorouracil (NSC19893), paclitaxel (NSC125973), vemurafenib (NSC761431), panobinostat (NSC761190), R-306465 (JNJ-16241199; NSC773264), adavosertib (NSC754352), TP-3654 (NSC805149), carboplatin (NSC241240), KSQ-4279 (NSC840948), and staurosporine (NSC755774) were obtained from the National Cancer Institute (NCI) Developmental Therapeutics Program Chemical Repository (34). The FDA-approved anticancer drug set is available from the NCI Developmental Therapeutics Program. […] The stock solutions were prepared in dimethyl sulfoxide (DMSO, Sigma-Aldrich, St. Louis, MO, cat. D2650) at 800-fold the tested concentration and stored at -70 degrees C prior to their use. All drugs and investigational agents were tested over a range starting from a high concentration at or near the clinical Cmax and decreasing in half-log increments. If the clinical Cmax for an agent had not been determined, the highest concentration tested was 10 microM.
2.3 Cell Culture. All cells were maintained in an incubator at 37 degrees C and 5% CO2 with 95% humidity. The PDC lines were cultured according to standard operating procedures established by the NCI PDMR. All PDCs were thawed and cultured in Matrigel-coated flasks prepared with a working solution of 1X Ham's F-12 nutrient mix, without supplementation (Invitrogen, cat. 11765054), 100 U/mL penicillin-streptomycin (Invitrogen, cat. 15140122), and 2.5% Matrigel (Corning Inc., cat. 354248) for the first three passages. The 857933-349-R-J2-PDC line was cultured in 6C/Colon 1B media, which includes advanced DMEM/F-12 (Thermo Fisher Scientific, cat. 12634028), 10 mM HEPES (Thermo Fisher Scientific, cat. 15630080), 1X GlutaMAX supplement (Thermo Fisher Scientific, cat. 35050061), 0.1 mg/mL primocin (InvivoGen, cat. ant-pm-2), 10% defined fetal bovine serum, heat inactivated (HyClone Laboratories Inc., cat. SH30070.03HI), 50% L-WRN conditioned media (ATCC, cat. CRL-3276), 1.25 mM N-Acetyl-L-cysteine (Sigma-Aldrich, cat. A9165), 10 mM nicotinamide (Sigma-Aldrich, cat. N0636), 1X B-27 supplement (Thermo Fisher Scientific, cat. 17504044), 1X N-2 supplement (Thermo Fisher Scientific, cat. 17502048), 10 microM Y-27632 dihydrochloride (Tocris Bioscience, cat. 1254), and 50 ng/mL human EGF recombinant protein (Thermo Fisher Scientific, cat. PHG0311). The 485176-168-R4-J1-PDC line was cultured in Panc media, which includes all 6C/Colon 1B media components plus 100 ng/mL human FGF-10 (Thermo Fisher Scientific, cat. 100-26), 500 nM SB-431542 (Selleckchem, cat. S1067), and gastrin (Tocris, cat. 3006).
[…]
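Note: spheroids exposed to drugs for seven days.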
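Throughout, for viability, T/C: 100% = DMSO vehicle control viability.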

## COc1cc(C2c3cc4c(cc3C(OC3OC5COC(C)OC5C(O)C3O)C3COC(=O)C23)OCO4)cc(OC)c1O (centres undefined) + Cc1cnc(CNC(=O)c2c(=O)c3ccc(N4CCCN(C)CC4)nc3n3c2sc2ccccc23)cn1
Curve of first compound, second compound 0.0316 µM
  IC50: > 10 µM
Curve of first compound, second compound 0.1 µM
  IC50: > 10 µM
Curve of first compound, second compound 0.316 µM
  IC50: > 10 µM
Curve of first compound, second compound 1 µM
  IC50: > 10 µM
Curve of first compound, second compound 3.16 µM
  IC50: > 10 µM
Curve of first compound, second compound 10 µM
  IC50: > 10 µM
Second compound 0.0316 µM, first compound 0.0316 µM
  viability, T/C: 83.2%
Second compound 0.0316 µM, first compound 0.1 µM
  viability, T/C: 91.7%
Second compound 0.0316 µM, first compound 0.316 µM
  viability, T/C: 87.8%
Second compound 0.0316 µM, first compound 1 µM
  viability, T/C: 72.9%
Second compound 0.0316 µM, first compound 3.16 µM
  viability, T/C: 98.6%
Second compound 0.0316 µM, first compound 10 µM
  viability, T/C: 82.1%
Second compound 0.1 µM, first compound 0.0316 µM
  viability, T/C: 97%
Second compound 0.1 µM, first compound 0.1 µM
  viability, T/C: 92.2%
Second compound 0.1 µM, first compound 0.316 µM
  viability, T/C: 76.2%
Second compound 0.1 µM, first compound 1 µM
  viability, T/C: 95.3%
Second compound 0.1 µM, first compound 3.16 µM
  viability, T/C: 75.5%
Second compound 0.1 µM, first compound 10 µM
  viability, T/C: 88%
Second compound 0.316 µM, first compound 0.0316 µM
  viability, T/C: 85.4%
Second compound 0.316 µM, first compound 0.1 µM
  viability, T/C: 77.3%
Second compound 0.316 µM, first compound 0.316 µM
  viability, T/C: 86.9%
Second compound 0.316 µM, first compound 1 µM
  viability, T/C: 94.8%
Second compound 0.316 µM, first compound 3.16 µM
  viability, T/C: 73.1%
Second compound 0.316 µM, first compound 10 µM
  viability, T/C: 81%
Second compound 1 µM, first compound 0.0316 µM
  viability, T/C: 84.8%
Second compound 1 µM, first compound 0.1 µM
  viability, T/C: 80.2%
Second compound 1 µM, first compound 0.316 µM
  viability, T/C: 85.8%
Second compound 1 µM, first compound 1 µM
  viability, T/C: 83.2%
Second compound 1 µM, first compound 3.16 µM
  viability, T/C: 96.4%
Second compound 1 µM, first compound 10 µM
  viability, T/C: 78.2%
Second compound 3.16 µM, first compound 0.0316 µM
  viability, T/C: 78.7%
Second compound 3.16 µM, first compound 0.1 µM
  viability, T/C: 78.2%
Second compound 3.16 µM, first compound 0.316 µM
  viability, T/C: 76.7%
Second compound 3.16 µM, first compound 1 µM
  viability, T/C: 76.9%
Second compound 3.16 µM, first compound 3.16 µM
  viability, T/C: 87.7%
Second compound 3.16 µM, first compound 10 µM
  viability, T/C: 75.2%
Second compound 10 µM, first compound 0.0316 µM
  viability, T/C: 65.1%
Second compound 10 µM, first compound 0.1 µM
  viability, T/C: 72.2%
Second compound 10 µM, first compound 0.316 µM
  viability, T/C: 70.9%
Second compound 10 µM, first compound 1 µM
  viability, T/C: 71.5%
Second compound 10 µM, first compound 3.16 µM
  viability, T/C: 78.7%
Second compound 10 µM, first compound 10 µM
  viability, T/C: 82.9%

## C#Cc1c(F)ccc2cc(O)cc(-c3ncc4c(N5CC6CCC(C5)N6)nc(OCC56CCCN5CC(F)C6)nc4c3F)c12 (centres undefined)
Compound 0.0316 µM
  viability, T/C: 92.7% and 70.8% and 78.7%
Compound 0.1 µM
  viability, T/C: 73.1% and 96.4% and 89.9%
Compound 0.316 µM
  viability, T/C: 66.8% and 78.3% and 71.8%
Compound 1 µM
  viability, T/C: 87.9% and 83.5% and 69.9%
Compound 3.16 µM
  viability, T/C: 86.9% and 49.7% and 45.9%
Compound 10 µM
  viability, T/C: 68.2% and 36.4% and 44.5%
Curve of compound
  IC50: > 10 µM and 3.14 µM and 2.93 µM
